The source of these data is ChEMBL document CHEMBL1142633, “A cytotoxic lobane diterpene from the formosan soft coral Sinularia inelegans” (2000).

For one test, the system named is A549. In words: Cytotoxicity against human A549 cells. It counts as functional.
A further test concerns P388. In words: Cytotoxicity against mouse P388 cells. It is filed as functional.

≈ marks a conversion by molar mass, not a printed value.

As to `C=C[C@@]1(C)CC[C@H](/C(C)=C\CCC(=C)C)C[C@@H]1C(=C)C` [INELEGANENE], the GI50 (in general, the concentration that inhibits growth by half) in the test with A549 was found to be 3.63 µg/mL (≈ 13.3 µM); in the test on P388, 0.2 µg/mL (≈ 0.734 µM).
